Measured values taken from patent US8735412B2, “Sulfoximine-substituted anilinopyrimidine derivatives as CDK inhibitors, the production thereof, and use as medicine” (Bayer Intellectual Property GmbH, priority 2008, dated 2014).
Read-outs that look alike come from different tables or passages of the source.

Columns and labels:
[1] = tested on: HeLa-MaTu human cervical carcinoma xenograft; assay: HeLa-MaTu cervical tumor xenograft model on NMRI nude mice; format: in vivo; conditions: oral; for tolerability of the cyclic treatment regimen: 10 mg/kg; for response vs control in vivo at 10 mg/kg: Mus musculus, read-out: treatment/control ratio T/C (tumor weight)
Procedure: HeLa-MaTu (EPO-GmbH, Berlin) human cervical carcinoma cells, which were grown in cell culture, were implanted subcutaneously in the flank of female NMRI nude mice. […] The study was terminated as soon as the tumors in one of the groups reached a size of approx. 150 mm^2.
(§1) The growth-inhibiting effect of the compounds was tested in the HeLa-MaTu cervical tumor model as xenograft on NMRI nude mice. […] Treatment of the established tumors was begun on day 4 after inoculation of the tumors.
as §1, §1
The study was designed for determining the initial response of a human cervical carcinoma xenograft model to treatments with the 5-Br comparative substance V12. The growth-inhibiting effect of the compounds was tested in the HeLa-MaTu cervical tumor model as xenograft on NMRI nude mice. V12 was dissolved completely in the solubilizer 40% polyethylene glycol 400 (PEG 400)/60% water to a final concentration of 0.7 mg/ml (group 2), 0.85 mg/ml (group 3), or 1.0 mg/ml (group 4). Treatment of the established tumors was begun on day 4 after inoculation of the tumors.
HeLa-MaTu (EPO-GmbH, Berlin) human cervical carcinoma cells, which were grown in cell culture, were implanted subcutaneously in the flank of female NMRI nude mice. […] The study was terminated as soon as the tumors in one of the groups reached a size of approx. 160 mm^2.
(§2) The growth-inhibiting effect of the compounds was tested in the HeLa-MaTu cervical tumor model as xenograft on NMRI nude mice. […] Treatment of the established tumors was begun on day 5 after inoculation of the tumors.
as §2, §2
The following test groups were used: • Group 1: Control, treatment with solubilizer (40% PEG 400/60% water) • Group 2: Compound according to WO 2005/037800 prepared according to preparation V14 disclosed above • (6 mg/kg, oral, 2x daily on day 5, 6, 12, 13, 19, 20) • Group 3: Compound according to WO 2005/037800 prepared according to preparation V14 disclosed above • (8 mg/kg, oral, 2× daily on day 5, 6, 12, 13, 19, 20) • Group 4: Compound according to WO 2005/037800 prepared according to preparation V14 disclosed above • (10 mg/kg, oral, 2× daily on day 5, 6, 12, 13, 19, 20)
The study was designed for determining the initial response of a human cervical carcinoma xenograft model to treatments with the 5-Br comparative substance V14. The growth-inhibiting effect of the compounds was tested in the HeLa-MaTu cervical tumor model as xenograft on NMRI nude mice. V14 was dissolved completely in the solubilizer 40% polyethylene glycol 400 (PEG 400)/60% water to a final concentration of 0.6 mg/ml (group 2), 0.8 mg/ml (group 3), or 1.0 mg/ml (group 4). Treatment of the established tumors was begun on day 5 after inoculation of the tumors.

[2] = target: T1, VEGF receptor tyrosine kinase-2 (Homo sapiens, UniProt P35968); assay: VEGF receptor-2 kinase assay (Assay 3); format: biochemical; conditions: 8 μM ATP, poly-(Glu4Tyr) substrate; read-out: VEGF-R2 (Assay 3) Concentration for 50% inhibition of enzyme activity, IC50
T1 construct: GST; made in house; host or cells: baculovirus-infected insect cells (Sf9)
Procedure: 10.3 Assay 3: VEGF Receptor-2 Kinase Assay
Recombinant VEGF receptor tyrosine kinase-2 was purified as GST fusion protein from baculovirus-infected insect cells (Sf9). Poly-(Glu4Tyr), used as kinase substrate, was purchased from the company Sigma.
VEGF receptor tyrosine kinase (90 ng/measuring point) was incubated for 10 min at 22° C. in the presence of various concentrations of test substances (0 μM, and within the range 0.001-30 μM) in 30 μl assay buffer [40 mM Tris/HCl pH5.5, 10 mM MgCl2, 1 mM MnCl2, 3 μM Na ortho-vanadate, 1.0 mM dithiothreitol, 8 μM adenosine triphosphate (ATP), 0.96 μg/measuring point poly-(Glu4Tyr), 0.2 μCi/measuring point ^33P-gamma ATP, 1.4% dimethylsulfoxide]. The reaction was stopped by adding EDTA solution (250 mM, pH8.0, 15 μl/measuring point).
From each reaction mixture, 15 μl was applied to P30 filter strips (from Wallac), and unincorporated ^33P-ATP was removed by washing the filter strips three times, for 10 min each time, in 0.5% phosphoric acid. After drying the filter strips for 1 hour at 70° C., the filter strips were covered with scintillator strips (MeltiLex™ A, from Wallac) and stoved for 1 hour at 90° C. The amount of incorporated ^33P (substrate phosphorylation) was determined by scintillation measurement in a gamma-radiation measuring instrument (Wallac). The measured data were standardized to 0% inhibition (enzyme reaction without inhibitor) and 100% inhibition (all assay components except enzyme). The IC50 values were determined by means of a 4-parameter fit using the company's own software.

T1 sequence (P35968 20-1356): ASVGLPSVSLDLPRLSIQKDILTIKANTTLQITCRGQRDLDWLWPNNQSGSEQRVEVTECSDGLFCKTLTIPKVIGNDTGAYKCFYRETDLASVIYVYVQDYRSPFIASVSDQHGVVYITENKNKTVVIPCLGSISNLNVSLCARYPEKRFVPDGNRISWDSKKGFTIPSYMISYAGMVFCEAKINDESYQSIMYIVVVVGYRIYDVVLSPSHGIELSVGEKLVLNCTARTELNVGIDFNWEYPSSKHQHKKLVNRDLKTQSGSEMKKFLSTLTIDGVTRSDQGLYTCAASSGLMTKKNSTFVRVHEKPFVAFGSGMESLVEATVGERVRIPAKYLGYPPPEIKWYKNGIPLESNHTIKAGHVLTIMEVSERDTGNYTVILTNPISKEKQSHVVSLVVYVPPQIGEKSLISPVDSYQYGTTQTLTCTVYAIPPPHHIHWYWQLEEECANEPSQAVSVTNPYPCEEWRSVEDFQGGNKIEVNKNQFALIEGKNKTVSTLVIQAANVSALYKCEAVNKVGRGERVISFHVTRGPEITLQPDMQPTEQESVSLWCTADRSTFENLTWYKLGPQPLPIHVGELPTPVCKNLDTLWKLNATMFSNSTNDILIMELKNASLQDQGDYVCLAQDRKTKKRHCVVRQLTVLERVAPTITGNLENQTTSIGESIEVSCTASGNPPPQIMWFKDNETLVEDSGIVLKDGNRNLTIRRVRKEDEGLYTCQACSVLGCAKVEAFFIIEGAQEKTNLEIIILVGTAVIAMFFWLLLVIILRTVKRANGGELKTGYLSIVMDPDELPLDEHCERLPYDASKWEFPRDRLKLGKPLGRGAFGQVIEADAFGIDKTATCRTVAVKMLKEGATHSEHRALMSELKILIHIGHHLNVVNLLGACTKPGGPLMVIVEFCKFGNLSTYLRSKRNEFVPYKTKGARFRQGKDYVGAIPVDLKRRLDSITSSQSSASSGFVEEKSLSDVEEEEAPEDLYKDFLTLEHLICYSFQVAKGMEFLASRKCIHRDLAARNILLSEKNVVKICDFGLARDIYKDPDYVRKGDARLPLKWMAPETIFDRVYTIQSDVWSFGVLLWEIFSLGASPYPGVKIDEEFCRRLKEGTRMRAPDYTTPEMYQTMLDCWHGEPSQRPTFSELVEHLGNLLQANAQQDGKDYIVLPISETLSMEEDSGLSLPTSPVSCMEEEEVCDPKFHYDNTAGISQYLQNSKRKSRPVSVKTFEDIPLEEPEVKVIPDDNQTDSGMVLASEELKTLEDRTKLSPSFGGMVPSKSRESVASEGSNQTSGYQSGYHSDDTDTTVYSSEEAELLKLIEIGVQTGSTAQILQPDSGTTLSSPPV

Structure (SMILES)	reduction of tumor weight at the end of the study to % of the control group ([1]; 10 mg/kg (group 4), 2x daily on day 5, 6, 12, 13, 19, 20, day 20) [%]	tolerability of the cyclic treatment regimen ([1]; 2x daily on day 5, 6, 12, 13, 19, 20)	effect on tumor growth (in words) ([1]; 6, 8, 10 mg/kg, 2x daily on day 5, 6, 12, 13, 19, 20)	response vs control in vivo at 10 mg/kg ([1]; 480 h, 10 mg/kg (group 4), 2x daily on day 5, 6, 12, 13, 19, 20, day 20) [%]	IC50 [2] [nM]	tolerability of the cyclic treatment regimen ([1]; 2x daily on day 4, 5, 11, 12, 17, 18, 23, 24)	effect on tumor growth (in words) ([1]; 7, 8.5, 10 mg/kg, 2x daily on day 4, 5, 11, 12, 17, 18, 23, 24)	response vs control in vivo at 10 mg/kg ([1]; 672 h, 10 mg/kg (group 4), 2x daily on day 4, 5, 11, 12, 17, 18, 23, 24, day 28) [%]
C[C@@H](O)[C@@H](C)Oc1nc(Nc2ccc(S(=N)(=O)C3CC3)cc2)ncc1Br (single isomer, unassigned) [Example V14]	44	well-tolerated	dose-dependent inhibition of tumor growth	44	91			
CCS(=N)(=O)c1ccc(Nc2ncc(Br)c(N[C@H](C)[C@@H](C)O)n2)cc1 (stereo partly drawn) [Example V12]					32	well-tolerated	dose-dependent weak inhibition of tumor growth	51
